Measured values taken from patent US7582282B2, “Methods for optimizing clinical responsiveness to methotrexate therapy using metabolite profiling and pharmacogenetics” (Prometheus Laboratories Inc., priority 2003, dated 2009).

Assays:
[1] = system: patients with rheumatoid arthritis; test: Cross-sectional clinical study of methotrexate effects in patients with rheumatoid arthritis (joint counts, VAS, mHAQ; regression analyses); format: in vivo, human; set-up: key to Physician's assessment of disease activity visual analog score (VAS), mean / Physician assessment of disease activity VAS: 10 cm visual analog scale; key to Modified health assessment questionnaire (mHAQ) score, mean / Modified Health assessment questionnaire: mean of 8 items, each 0 = without any difficulty to 3 = unable to do
Method: In this cross-sectional study, eligibility was limited to patients of at least 18 years of age who met the revised criteria of the American Rheumatism Association for Rheumatoid Arthritis and had received low dose methotrexate therapy for at least three months. Some patients were on additional medications for rheumatoid arthritis, including low dose corticosteroids (<10 mg day), and folic acid supplementation (1 mg/day). The Institutional Review Board approved the study, and patient consent was obtained.
Patient characteristics were collected at the time of the enrollment in the clinical study. Clinical assessment included a tender joint count, a swollen joint count, a Physician's Assessment of Disease Activity (using a 10 cm visual analog scale (VAS)), and a Patient's Assessment of Physical Function using the modified-Health Assessment Questionnaire (m-HAQ). The mHAQ is the average score obtained on eight items addressed to the patient to assess loss of typical lifestyle activities. Scoring of items within each is from 0 (without any difficulty) to 3 (unable to do). The eight items are as follows: 1: dress yourself, 2: get in and out of bed, 3: lift a full glass to your mouth, 4: walk, 5: wash and dry entire body, 6: bend down and pick up clothing, 7: turn faucets on and off, and 8: get in and out of a car. In addition to these standards, the American College of Rheumatology measures, and a Physician's Assessment of Response to methotrexate scored on a 10 cm visual analogue scale (VAS) were also used. In this visual analogue scale, “0” is defined as a perfect response, while “10” is defined as no response. Based on these definitions, a physician's assessment of response to MTX below group median corresponds to a perception of response above group median. Clinical data were collected on case report forms at the time of the clinical visit, and the physician and each patient were blinded to all laboratory parameters throughout the entire study. Furthermore, using the VAS for the physician's assessment of disease activity and the physician's assessment of response to methotrexate, the highest 25th percentiles for disease activity or response to methotrexate were calculated. Chi-square analysis was applied, and odds ratios (OR) were calculated.
Genotyping was performed as follows: Whole blood (EDTA) was drawn the day of the clinical visit; genomic DNA was extracted using a Generation Purification Capture Column (Gentra Systems, Inc; Minneapolis, Minn.). The RFC-1 G80A polymorphism, which results in a […] substitution at codon 27 of RFC-1, was detected using the PCR RFLP method described in Chango et al., supra, 2000. The ATIC C347G polymorphism, which results in a threonine to serine substitution at position 116 of ATIC, was determined with a real time TaqMan allelic discrimination assay performed using fluorogenic 3′-minor groove binding probes. The forward primer sequence was 5′-[…]-3′ (SEQ ID NO:3), and the reverse primer sequence was 5′-[…]-3′ (SEQ ID NO:4). Allelic discrimination was performed using the wild-type fluorescent probe 5′-FAM-[…]-MGB 3′ (SEQ ID NO:5) and the mutant fluorescent probe 5′-VIC-[…]-MGB 3′ (SEQ ID NO:6). Final reaction conditions were as follows: 900 nM of each primer, 200 nM of each probe, 5 ng genomic DNA, and a 1×TaqMan master mix (Applied Biosystems; Foster City, Calif.). PCR reactions were incubated for one 2-minute cycle at 50° C., a 10-minute cycle at 95° C., and 40 cycles of 95° C. for 15 seconds, 58° C. for 15 seconds, and finally 60° C. for 45 seconds. Statistical analyses were performed using Statistica (StatSoft Inc., Tulsa, Okla.) essentially as follows. […]

[2] = human, in vivo
Method: Red blood cell methotrexate polyglutamate concentrations were measured as described further below using HPLC-fluorometry with post-column photo-oxidation technique. The technologist in charge of quantification of red blood cell methotrexate polyglutamates was blinded to patients' clinical information.
Mobile phase B consisted of acetonitrile.
Red blood cell long-chain MTXPG concentrations were measured as described previously using an HPLC-fluorometry procedure with post-column photo-oxidation technique (Dervieux, Clin Chem. (2003)). The technologist performing the quantification of RBC MTXPGs (up to the penta-order of glutamation) was blinded to patient's information.
The quantification limit of the analytical method is 5 nmol/L and the detection limit is 2 nmol/L packed RBC (for all MTXPG species) (Dervieux, Clin Chem. (2003)).

[3] = Red blood cell MTXPG concentrations in 14 polyarthritis patients on low dose weekly methotrexate (HPLC-fluorometry)
Method: The liquid chromatograph was an Agilent 1100 HPLC chemstation system composed of a quaternary pump, a system controller, an autoinjector, a sample cooler kept at 4° C., and a fluorometer. […] Methotrexate polyglutamates were detected with post-column derivatization using a photochemical reactor unit (Aura Industries, New York, N.Y.) equipped with an elongated 254 nm low pressure mercury ultraviolet lamp and containing a 1/16″ outer diameter TEFLON™ tubing (internal diameter 0.25 mm) assembled as a knitted coil and connected on-line between the analytical column and fluorometer. […] Methotrexate polyglutamate photolytic products were measured at an excitation wavelength of 274 nm and an emission wavelength of 464 nm, unless otherwise indicated. The retention times described herein were measured from time of injection to time of detection at the post-reactor unit fluorometer.
HPLC separation was performed on a 25 cm×4.6 mm X Terra MS C18 column (Waters, Milford, Mass.), 5 μm particle size, protected by a guard column. […] Methotrexate polyglutamate photolytic products were analyzed at an excitation wavelength of 274 nm and an emission wavelength of 464 nm. […]
Results were expressed as nmol/L packed red blood cells, and patient results were expressed as an average plus or minus the standard error of the mean (±SEM). […]

[4] = multivariate regression with RFC-1, ATIC, TSER genotypes, adjusted for corticosteroids and folic acid
[5] = 108 patients on methotrexate, mean ± SEM
[6] = 108 patients on methotrexate, median (range)
[7] = multivariate linear regression adjusted for corticosteroids and folic acid

CN(Cc1cnc2nc(N)nc(N)c2n1)c1ccc(C(=O)N[C@@H](CCC(=O)N[C@@H](CCC(=O)N[C@@H](CCC(=O)O)C(=O)O)C(=O)O)C(=O)O)cc1 [MTXPG3, 4-amino-10-methylpteroyltri-glutamic acid]
Logistic regression estimate for MTXPG3: probability of total number of tender and swollen joints below group median ([1]; FIG. 4A, model with MTXPG3 only, estimate ± standard error): 0.022±0.008 | Logistic regression estimate for MTXPG3: probability of physician assessment of Disease activity VAS below group median ([1]; FIG. 4B, model with MTXPG3 only): 0.024±0.009 | Logistic regression estimate for MTXPG3: probability of physician assessment of response to methotrexate VAS below group median ([1]; FIG. 4C, model with MTXPG3 only): 0.034±0.01 | Logistic regression estimate for MTXPG3: probability of mHAQ below group median ([1]; FIG. 4D, model with MTXPG3 only): 0.014±0.008 | Logistic regression estimate for MTXPG3: probability of total number of tender and swollen joints below group median ([1]; FIG. 5A, model with MTXPG3 and RFC-1 G80A genotype): 0.022±0.009 | Logistic regression estimate for MTXPG3: probability of physician assessment of Disease activity VAS below group median ([1]; FIG. 5B, model with MTXPG3 and RFC-1 G80A genotype): 0.024±0.009 | Logistic regression estimate for MTXPG3: probability of physician assessment of response to methotrexate VAS below group median ([1]; FIG. 5C, model with MTXPG3 and RFC-1 G80A genotype): 0.033±0.010 | Logistic regression estimate for MTXPG3: probability of mHAQ below group median ([1]; FIG. 5D, model with MTXPG3 and RFC-1 G80A genotype): 0.015±0.008 | Logistic regression estimate for MTXPG3: probability of total number of tender and swollen joints below group median ([1]; FIG. 6A, model with MTXPG3 and ATIC C347G genotype): 0.024±0.009 | Logistic regression estimate for MTXPG3: probability of physician assessment of Disease activity VAS below group median ([1]; FIG. 6B, model with MTXPG3 and ATIC C347G genotype): 0.025±0.009 | Logistic regression estimate for MTXPG3: probability of physician assessment of response to methotrexate VAS below group median ([1]; FIG. 6C, model with MTXPG3 and ATIC C347G genotype): 0.038±0.010 | Logistic regression estimate for MTXPG3: probability of mHAQ below group median ([1]; FIG. 6D, model with MTXPG3 and ATIC C347G genotype): 0.013±0.008 | Logistic regression estimate for MTXPG3: probability of total number of tender and swollen joints below group median ([1]; FIG. 7A, model with MTXPG3 and PGENi (RFC-1, ATIC)): 0.023±0.009 | Logistic regression estimate for MTXPG3: probability of physician assessment of Disease activity VAS below group median ([1]; FIG. 7B, model with MTXPG3 and PGENi (RFC-1, ATIC)): 0.025±0.009 | Logistic regression estimate for MTXPG3: probability of physician assessment of response to methotrexate VAS below group median ([1]; FIG. 7C, model with MTXPG3 and PGENi (RFC-1, ATIC)): 0.036±0.010 | Logistic regression estimate for MTXPG3: probability of mHAQ below group median ([1]; FIG. 7D, model with MTXPG3 and PGENi (RFC-1, ATIC)): 0.014±0.009 | MTXPG3 estimate, logistic regression: probability of physician's assessment of patient's response to MTX VAS≦2 cm ([1]; FIG. 12B): 0.035±0.01 | Estimate ± SEM of RBC MTXPG3 (nmol/L) for Modified Health assessment questionnaire [1, 4]: −0.002 ± 0.002 | Estimate ± SEM of RBC MTXPG3 (nmol/L) for Number of Swollen joints [1, 4]: −0.035 ± 0.019 | Estimate ± SEM of RBC MTXPG3 (nmol/L) for Number of Tender joints [1, 4]: −0.047 ± 0.23 | Estimate ± SEM of RBC MTXPG3 (nmol/L) for Patient's Global assessment of disease activity VAS [1, 4]: −0.004 ± 0.009 | Estimate ± SEM of RBC MTXPG3 (nmol/L) for Physician's Global assessment of disease activity VAS [1, 4]: −0.025 ± 0.008 | Estimate ± SEM of RBC MTXPG3 (nmol/L) for Physician's assessment of Patient's response to MTX VAS [1, 4]: −0.026 ± 0.007 | Fold more likely to have clinical responsiveness to the chemotherapy above average ([1]; patients with RBC MTXPG3 levels above 60 nmol/L): 12.7 fold | Median RBC long-chain MTXPGs concentration (MTXPG3) [2]: 40 nmol/L | RBC long-chain MTXPGs concentration (MTXPG3), range [2]: <5 to 131 nmol/L | Average share of total methotrexate polyglutamates ([3]; 14 patients, RBC): 55%

CN(Cc1cnc2nc(N)nc(N)c2n1)c1ccc(C(=O)N[C@@H](CCC(=O)O)C(=O)O)cc1 [Methotrexate, 4-amino-10-methylpteroylglutamic acid]
Modified Health assessment questionnaire [1, 5]: 0.55 ± 0.05 | Number of Swollen joints (maximum 22) [1, 5]: 4.0 ± 0.5 | Number of Tender joints (maximum 22) [1, 5]: 5.0 ± 0.6 | Patient assessment of disease activity VAS [1, 5]: 4.1 ± 0.2 | Physician assessment of disease activity VAS [1, 5]: 3.5 ± 0.2 | Modified Health Assessment Questionnaire (mHAQ score) [1, 6]: 0.375 (0-2) | Number of swollen and tender joints (total number) [1, 6]: 5.5 (0-44) | Physician assessment of disease activity (10 cm VAS score) [1, 6]: 2.9 (0.1-8.4) | Physician assessment of response to Methotrexate VAS ([1]; 108 patients, mean ± SEM): 2.7 ± 0.2 | Physician assessment of response to methotrexate (10 cm VAS score) ([1]; 108 patients, median (range), 0 perfect response, 10 no response): 2.1 (0.1-8.3) | Mean number of swollen joints ([1]; PGENi=0 (n=58 patients)): 5.5±0.8 | Modified health assessment questionnaire (mHAQ) score, mean ([1]; PGENi=0 (n=58 patients)): 0.68±0.07 | Physician's assessment of disease activity visual analog score (VAS), mean ([1]; PGENi=0 (n=58 patients)): 4.1±0.3 | Physician's assessment of response to MTX, mean ([1]; PGENi=0 (n=58 patients)): 3.0±0.2 | Mean number of tender joints ([1]; PGENi=0 (n=58 patients), PGENi from RFC-1, ATIC, TS homozygosity): 6.4±0.9 | Mean number of swollen joints ([1]; PGENi=1 to 3 (n=50 patients)): 2.3±0.4 | Mean number of tender joints ([1]; PGENi=1 to 3 (n=50 patients)): 3.3±0.9 | Modified health assessment questionnaire (mHAQ) score, mean ([1]; PGENi=1 to 3 (n=50 patients)): 0.39±0.06 | Physician's assessment of disease activity visual analog score (VAS), mean ([1]; PGENi=1 to 3 (n=50 patients)): 2.6±0.3 | Physician's assessment of response to MTX, mean ([1]; PGENi=1 to 3 (n=50 patients)): 2.3±0.3 | Estimate ± SEM of methotrexate dose (mg/week) for Modified Health assessment questionnaire [1, 7]: −0.017 ± 0.009; p = 0.09 | Estimate ± SEM of methotrexate dose (mg/week) for Number of Tender joints [1, 7]: −0.17 ± 0.12; p = 0.15 | Estimate ± SEM of methotrexate dose (mg/week) for Physician assessment of disease activity VAS [1, 7]: −0.088 ± 0.044; p = 0.06 | Fold more likely to have a good response to methotrexate therapy ([1]; patients with a PGENi between 1-3 (sum of homozygous variant genotypes)): 3.7 fold | Fold more likely to have Physician's Assessment of Patient's Response to Methotrexate VAS≦2 cm (good response) ([1]; pharmacogenetic index above 2 (index 0 to 5, variant alleles counted)): 4.7 fold | RBC concentration in a patient sample ([3]; one patient on 17.5 mg weekly methotrexate for at least 3 months): 27 nmol/L
